Publication PMC7179958 (CPT: Pharmacometrics & Systems Pharmacology, 2020)

How the values were obtained:
[1] = parameters: method as in earlier work; conditions: eltrombopag; minimum value of FDA draft guidance when plasma protein binding ≥ 0.99; cited from earlier work
[2] = system: UDP‐glucuronosyltransferase (UGT)1A3 and 2B7 and cytochrome P450 (CYP)2C9; conditions: inhibition by eltrombopag of UGT1A3, 2B7 and CYP2C9 (exception CYP1B1); cited from earlier work
[3] = Static R value for clinical TrDDI (FDA guidance); parameters: species or system human; conditions: eltrombopag victim, pitavastatin perpetrator; versus FDA cut‐offs
[4] = cited from earlier work
[5] = Fraction unbound in hepatocytes, Rapid Equilibrium Dialysis (RED) device; assay type: in vitro ADME; conditions: human, heat inactivated hepatocytes, RED device
Procedure: Fraction Unbound in Hepatocytes. The estimation of the fraction unbound in hepatocytes at equilibrium can be obtained using multiple techniques: heat inactivated hepatocytes (3); linear regression obtained using the logD7.4 (4); parameter estimation (1, 3, 5, 6) or as separate binding rate constants determined experimentally (7). […] The RED device works with low volumes across a medium chamber (500 µL, white) and incubation chamber containing the hepatocytes (300 µL, red), and as such has been reported to even out the non-specific binding (NSB) between the membrane and wells, thereby improving recovery (8). The free fraction in the incubation (fu.inc) is calculated as:
fu.inc= [medium chamber] Whiteincubation chamber(Red) . (Eq.S1)
The amount of non-specific binding (NSB) to the labware is important to understand the recovery from the RED device experiment to evaluate the reliability of fu.inc: […]

[6] = Semimechanistic PBPK model simulation in simulated healthy volunteers; parameters: species or system human; conditions: PBPK model value
Description: Uptake is inhibited by the opposing drug in X 3 via the respective uptake concentration at half of the maximum uptake velocity (K m.up.X) shown as the inhibition constant (K I.up). Passive movement of drug into and out of the liver is through clearances P dif.X and P def.X, respectively. Both drugs are cleared through biliary excretion (CLbi.X) into the gallbladder (X 5), and into X 2 where they can be reabsorbed.
The micro‐rate constants for transporter‐mediated uptake and passive uptake were scaled to macro‐rate constants (see Table 2 ) and then empirically scaled up to the human body (83 kg, healthy adult; ^23 see Table 2 ).
The ODE PBPK model (see Figure 1 for schematic and Supplemental Material for the set of ODEs) was developed using desolve ^27 in R‐studio (v1.1.463, R‐Studio Inc., Boston, MA) running R‐project version 3.6.0 ^28 and was similar to that used for eltrombopag and rosuvastatin. ^5 All figures in this article were generated either within Inkscape (0.93, Inkscape.org, Boston, MA) or cowplot, ggplot2, ^29 , ^30 extrafont, ^31 and Cairo. ^32

[7] = eltrombopag only, single 75 mg, plasma

CC1=NN(c2ccc(C)c(C)c2)C(=O)/C1=N\Nc1cccc(-c2cccc(C(=O)O)c2)c1O [eltrombopag, Eltrombopag]
f u.pl, fraction unbound in the plasma set for static R value [1]: 0.01 | IC50 [2]: 2 to 20 µM | R value, static model [3]: below the cut‐offs | AUC0−∞ (literature) [4, 7]: 145 (101–208) h•µg/mL | tmax (h) [4, 7]: 2.5 (2–4) h | Cmax ([4]; eltrombopag only, single 75 mg, plasma, mean (95% CI)): 10.9 (8.7–13.6) µg/mL | K a, absorption rate constant ([4]; eltrombopag, used for I in.max): 0.0084 min⁻¹ | F a F g, fraction absorbed multiplied by the intestinal availability ([4]; eltrombopag): 0.5 | parent in urine ([4]; eltrombopag): 0 parent in urine [ ^25 ] | V c.X, volume of the central compartment / volume of distribution ([4]; eltrombopag, plasma): 2940 [ ^5 ] mL | fraction unbound ([5]; overnight, pitavastatin 0.3, 10 and 100 nmol/ml, eltrombopag 30 nmol/ml, read-out: f u.inc, fraction unbound in the incubation): 0.04 | recovery ([5]; read-out: analytical recovery): 10% | CLmet.X, metabolic clearance ([6]; Eqs. 10 and 11): 6.8 mL/min/liver | CLbi.X, biliary clearance ([6]; Eqs. 12 and 13): 13 mL/min/liver
